Each structure is given as a SMILES string. ± gives the expanded uncertainty stated by the source.

This note sets out measurements from the NIST ThermoML archive (doi:10.1016/j.jct.2018.03.009).

For this data set the following is noted: 101.33 kPa, Liquid, Pycnometric method.

In the case of `COC(C)CCOC(C)=O` (configuration not stated) [3-methoxybutyl acetate], the mass density is, setting by setting: (273.15 K) 975.3 ± 4.3 kg/m3; (283.15 K) 965.3 ± 4.3 kg/m3.

For the compound `CCCCOCCOC(C)=O` [2-butoxyethyl acetate], the mass density amounted to 960.4 ± 5.5 kg/m3 (273.15 K) and 950.4 ± 5.4 kg/m3 (283.15 K).

`COCC(C)OC(C)=O` (configuration not stated) [1-methoxy-2-propyl acetate]: the mass density worked out at 989.2 ± 4.4 kg/m3 (273.15 K) and 978.2 ± 4.3 kg/m3 (283.15 K).

In the case of `COCCOC(C)=O` [2-methoxyethyl ethanoate], the mass density reads like this: (273.15 K) 1027.8 ± 5.8 kg/m3; (283.15 K) 1016.8 ± 5.8 kg/m3.

Take `CCOCCOCCOCC` [diethylene glycol diethyl ether]: the mass density reads like this: (273.15 K) 926.4 ± 4.1 kg/m3; (283.15 K) 916.3 ± 4 kg/m3.

Take `CCOCCOCCOC(C)=O` [2-(2-ethoxyethoxy)ethyl acetate]: the mass density is, setting by setting: (273.15 K) 1030 ± 5.9 kg/m3; (283.15 K) 1020 ± 5.8 kg/m3.

The mass density is mass per unit of volume.
